Data published in patent US7547690B2, “Compounds for the treatment of Hepatitis C” (Bristol-Myers Squibb Company, priority 2007, dated 2009).

Key:
HCV replicon cells = experiment: HCV replicon FRET / luciferase assay; assay type: cell-based; conditions: Hepatitis C virus, 50% reduction in FRET or luciferase activity in HCV replicon cells; read-out: EC50
Description: FRET Assay Preparation. The HCV FRET screening assay was performed in 96-well cell culture plates. The FRET peptide (Anaspec, Inc.) (Taliani et al., Anal. Biochem. 1996, 240, 60-67) contains a fluorescence donor, EDANS, near one end of the peptide and an acceptor, DABCYL, near the other end. The fluorescence of the peptide is quenched by […] resonance energy transfer (RET) between the donor and the acceptor, but as the NS3 protease cleaves the peptide the products are released from RET quenching and the fluorescence of the donor becomes apparent. The assay reagent was made as follows: 5× cell Luciferase cell culture lysis reagent from Promega (#E153A) diluted to 1× with dH2O, NaCl added to 150 mM final, the FRET peptide diluted to 20 μM final from a 2 mM stock.
To prepare plates, HCV replicon cells, with or without a Renilla luciferase reporter gene, were trypsinized and plated in a 96-well plate with titrated test compounds added in columns 3 through 12; columns 1 and 2 contained a control compound (HCV control inhibitor), and the bottom row contained cells with DMSO only. The plates were then placed in a CO2 incubator at 37° C.
Assays. Subsequent to addition of the test compounds described above (FRET Assay Preparation), at various times the plate was removed and Alamar blue solution (Trek Diagnostics, #00-100) was added to measure cellular toxicity. After reading in a Cytoflour 4000 instrument (PE Biosystems), plates were rinsed with PBS and then used for FRET assay by the addition of 30 ul of the FRET peptide assay reagent described above (FRET Assay Preparation) per well. The plate was then placed into the Cytoflour 4000 instrument which had been set to 340 excite/490 emission, automatic mode for up to 20 cycles and the plate read in a kinetic mode. Typically, the signal to noise using an endpoint analysis after the reads was at least three-fold. Alternatively, after Alamar blue reading, plates were rinsed with PBS, then used for luciferase assay using the Promega Dual-Glo Luciferase Assay System or the Promega EnduRen Live Cell Substrate assay.
Compound analysis was performed by quantification of the relative HCV replicon inhibition and the relative cytotoxicity values. To calculate cytoxicity values, the average Alamar Blue fluorescence signals from the control wells were set as 100% non-toxic. The individual signals in each of the compound test wells were then divided by the average control signal and multiplied by 100% to determine […]. To calculate the HCV replicon inhibition values, an average background value was obtained from the two wells containing the highest amount of HCV control inhibitor at the end of the assay period. These numbers were similar to those obtained from naïve Huh-7 cells. The background numbers were then subtracted from the average signal obtained from the control wells and this number was used as 100% activity. The individual signals in each of the compound test wells were then divided by the averaged control values after background subtraction and multiplied by 100% to determine percent activity. EC50 values were calculated as the concentration which caused a 50% reduction in FRET or luciferase activity. The two numbers generated for the compound plate, percent cytoxicity and percent activity, were used to determine compounds of interest for further analysis.

HCV NS5B = biological target: T1, HCV NS5B (Hepatitis C virus genotype 1b, UniProt Q9WMX2); experiment: HCV NS5B RdRp enzyme assay (standard / modified); assay type: biochemical; conditions: HCV RdRp genotype 1b; standard or modified assay not specified; read-out: IC50
T1 construct: The protein was expressed with an 18 amino acid C-terminal truncation to enhance the solubility; made in house; host or cells: E. coli BL21(DE3)
Description: HCV NS5B RdRp cloning, expression, and purification. The cDNA encoding the NS5B protein of HCV, genotype 1b, was cloned into the pET21a expression vector. The protein was expressed with an 18 amino acid C-terminal truncation to enhance the solubility. The E. coli competent cell line BL21(DE3) was used for expression of the protein. Cultures were grown at 37° C. for ˜4 hours until the cultures reached an optical density of 2.0 at 600 nm. The cultures were cooled to 20° C. and induced with 1 mM IPTG. Fresh ampicillin was added to a final concentration of 50 μg/ml and the cells were grown overnight at 20° C.
Cell pellets (3 L) were lysed for purification to yield 15-24 mgs of purified NS5B. The lysis buffer consisted of 20 mM Tris-HCl, pH 7.4, 500 mM NaCl, 0.5% triton X-100, 1 mM DTT, 1 mM EDTA, 20% glycerol, 0.5 mg/ml lysozyme, 10 mM MgCl2, 15 ug/ml deoxyribonuclease I, and Complete TM protease inhibitor tablets (Roche). After addition of the lysis buffer, frozen cell pellets were resuspended using a tissue homogenizer. To reduce the viscosity of the sample, aliquots of the lysate were sonicated on ice using a microtip attached to a Branson sonicator. The sonicated lysate was centrifuged at 100,000×g for 1 hr at 4° C. and filtered through a 0.2 μm filter unit (Corning).
The protein was purified using two sequential chromatography steps: Heparin sepharose CL-6B and polyU sepharose 4B (Pharmacia). The chromatography buffers were identical to the lysis buffer but contained no lysozyme, deoxyribonuclease I, MgCl2 or protease inhibitor and the NaCl concentration of the buffer was adjusted according to the requirements for charging the protein onto the column. Each column was eluted with a NaCl gradient which varied in length from 5-50 column volumes depending on the column type. After the final chromatography step, the resulting purity of the enzyme is >90% based on SDS-PAGE analysis. The enzyme was aliquoted and stored at −80° C.
Standard HCV NS5B RdRp enzyme assay. HCV RdRp genotype 1b assays were run in a final volume of 60 μl in 96 well plates (Corning 3600). The assay buffer is composed of 20 mM Hepes, pH 7.5, 2.5 mM KCl, 2.5 mM MgCl2, 1 mM DTT, 1.6 U RNAse inhibitor (Promega N2515), 0.01 mg/ml BSA (Sigma B6917), and 2% glycerol. All compounds were serially diluted (3-fold) in DMSO and diluted further in water such that the final concentration of DMSO in the assay was 2%. HCV RdRp genotype 1b enzyme was used at a final concentration of 28 nM. A polyA template was used at 6 nM, and a biotinylated oligo-dT12 primer was used at 180 nM final concentration. Template was obtained commercially (Amersham 27-4110). Biotinylated primer was prepared by Sigma Genosys. 3H-UTP was used at 0.6 μCi (0.29 μM total UTP). Reactions were initiated by the addition of enzyme, incubated at 30 ° C. for 60 min, and stopped by adding 25 μl of 50 mM EDTA containing SPA beads (4 μg/μl, Amersham RPNQ 0007). Plates were read on a Packard Top Count NXT after >1 hr incubation at room temperature.
Modified HCV NS5B RdRp enzyme assay. A modified enzyme assay was performed essentially as described for the standard enzyme assay except for the following: The biotinylated oligo dT12 primer was precaptured on streptavidin-coated SPA beads by mixing primer and beads in assay buffer and incubating at room temperature for one hour. Unbound primer was removed after centrifugation. The primer-bound beads were resuspended in 20 mM Hepes buffer, pH 7.5 and used in the assay at final concentrations of 20 nM primer and 0.67 μg/μl beads. Order of addition in the assay: enzyme (1.75 nM) was added to diluted compound followed by the addition of a mixture of template (0.36 nM), 3H-UTP (0.6 μCi, 0.29 μM), and primer-bound beads, to initiate the reaction; concentrations given are final. Reactions were allowed to proceed for 4 hours at 30° C.
IC50 values for compounds were determined using seven different [I]. […]

T1 sequence (Q9WMX2 2420-2992): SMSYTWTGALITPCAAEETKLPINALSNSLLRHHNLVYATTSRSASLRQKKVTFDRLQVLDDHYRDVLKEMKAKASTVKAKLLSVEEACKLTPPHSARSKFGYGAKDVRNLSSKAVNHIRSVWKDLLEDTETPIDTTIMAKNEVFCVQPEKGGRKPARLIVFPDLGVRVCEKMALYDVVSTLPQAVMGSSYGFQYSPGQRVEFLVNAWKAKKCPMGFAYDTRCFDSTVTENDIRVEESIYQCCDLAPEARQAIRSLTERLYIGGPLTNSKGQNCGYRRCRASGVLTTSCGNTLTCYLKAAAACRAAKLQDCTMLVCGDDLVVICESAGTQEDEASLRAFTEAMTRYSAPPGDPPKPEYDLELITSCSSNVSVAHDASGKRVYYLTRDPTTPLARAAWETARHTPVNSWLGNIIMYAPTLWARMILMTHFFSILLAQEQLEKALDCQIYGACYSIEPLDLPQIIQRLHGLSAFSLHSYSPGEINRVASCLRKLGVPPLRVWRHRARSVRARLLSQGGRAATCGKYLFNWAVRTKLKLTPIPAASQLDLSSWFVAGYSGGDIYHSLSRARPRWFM

Row | SMILES | EC50 (HCV replicon cells) | IC50 (HCV NS5B)
1 | COc1ccc2c(c1)C1CC1(C(=O)N1CC3CN(C)CC(C1)N3C)Cn1c-2c(C2CCCCC2)c2ccc(C(=O)NS(=O)(=O)N(C)C)cc21 (stereo not shown) | 2.4 to 500 nM | 2.4 to 500 nM
2 | COc1ccc2c(c1)C1CC1(C(=O)N1C3COC[C@@H]1CN(C)C3)Cn1c-2c(C2CCCCC2)c2ccc(C(=O)NS(=O)(=O)CC(C)C)cc21 (stereo partly shown) | 2.4 to 500 nM | 2.4 to 500 nM
3 | COc1ccc2c(c1)C1CC1(C(=O)N1C3CC1CN(C)C3)Cn1c-2c(C2CCCCC2)c2ccc(C(=O)NS(=O)(=O)CC(C)C)cc21 (stereo not shown) | 2.4 to 500 nM | 2.4 to 500 nM
4 | COc1ccc2c(c1)C1CC1(C(=O)N1C3CC1CN(Cc1ccccc1)C3)Cn1c-2c(C2CCCCC2)c2ccc(C(=O)NS(=O)(=O)CC(C)C)cc21 (stereo not shown) | 2.4 to 500 nM | 2.4 to 500 nM
5 | COc1ccc2c(c1)C1CC1(C(=O)N1C[C@H]3C[C@@H]1CN3C(=O)OC(C)(C)C)Cn1c-2c(C2CCCCC2)c2ccc(C(=O)NS(=O)(=O)N(C)C)cc21 (stereo partly shown) | – | 2.4 to 500 nM
6 | COc1ccc2c(c1)C1CC1(C(=O)N1C3CC1CN(C)C3)Cn1c-2c(C2CCCCC2)c2ccc(C(=O)NS(=O)(=O)C(C)(C)C)cc21 (stereo not shown) | 2.4 to 500 nM | 2.4 to 500 nM
7 | COc1ccc2c(c1)C1CC1(C(=O)N1[C@@H]3C[C@H]1CN(C)C3)Cn1c-2c(C2CCCCC2)c2ccc(C(=O)NS(N)(=O)=O)cc21 (stereo partly shown) | 2.4 to 500 nM | 2.4 to 500 nM
8 | COc1ccc2c(c1)[C@@H]1C[C@]1(C(=O)N1C3CCCC1C(=O)N(C)C3=O)Cn1c-2c(C2CCCCC2)c2ccc(C(=O)NS(=O)(=O)N(C)C)cc21 | 2.4 to 500 nM | 2.4 to 500 nM
9 | COc1ccc2c(c1)C1CC1(C(=O)N1C3CNCC1C3)Cn1c-2c(C2CCCCC2)c2ccc(C(=O)NS(=O)(=O)C3CC3)cc21 (stereo not shown) | 2.4 to 500 nM | 2.4 to 500 nM
10 | COc1ccc2c(c1)C1CC1(C(=O)N1C3COC[C@@H]1CN(C)C3)Cn1c-2c(C2CCCCC2)c2ccc(C(=O)NS(=O)(=O)C3CCCCC3)cc21 (stereo partly shown) | 2.4 to 500 nM | 2.4 to 500 nM
11 | COc1ccc2c(c1)C1CC1(C(=O)N1C3CCCC1CN(C)C3)Cn1c-2c(C2CCCCC2)c2ccc(C(=O)NS(=O)(=O)C3CC3)cc21 (stereo not shown) | 2.4 to 500 nM | 2.4 to 500 nM
12 | COc1ccc2c(c1)C1CC1(C(=O)N1[C@@H]3C[C@H]1CN(C(=O)N(C)C)C3)Cn1c-2c(C2CCCCC2)c2ccc(C(=O)NS(=O)(=O)N(C)C)cc21 (stereo partly shown) | 2.4 to 500 nM | 2.4 to 500 nM
13 | COc1ccc2c(c1)C1CC1(C(=O)N1C[C@H]3C[C@@H]1CN3C(=O)OC(C)(C)C)Cn1c-2c(C2CCCCC2)c2ccc(C(=O)NS(C)(=O)=O)cc21 (stereo partly shown) | 2.4 to 500 nM | 2.4 to 500 nM
